# From patent US20100215579A1, “PHEN-NAPHTHALENE AND PHEN-QUINOLINE DERIVATIVES AND THEIR USE FOR BINDING AND IMAGING AMYLOID PLAQUES” (The Trustees of the University of Pennsylvania, priority 2007, published 2010)
# Columns and labels:
# amyloid plaques = molecular target: T1, amyloid plaques (Homo sapiens, UniProt P05067); test: Ki values of Phen-Nap, Nap-Phen derivatives (Ki binding data)
# T1 construct: fibrillary Aβ plaques consisting predominately of aggregates of Aβ40 and Aβ42 peptides
# [1] = Biodistribution in ICR mice after an iv injection; assay type: in vivo
# Text: Biodistribution in ICR Mice After an iv Injection of [^18F][4-(6-{2-[2-(2-Fluoro-ethoxy)-ethoxy]-ethoxy}-naphthalen-2-yl)-phenyl]-methyl-amine in 1% EtOH/0.1% BSA in Water
# (% dose/organ, avg of 3 mice±SD)
# (% dose/g, avg of 3 mice±SD)
# Biodistribution in ICR Mice After an iv Injection of [^18F]19a in 3% EtOH/0.1% BSA in Water
# Biodistribution in ICR Mice After an iv Injection of [^18F]34a in 5% EtOH/0.1% BSA in Water
# Biodistribution in ICR Mice After an iv Injection of [^18F]32a in 1% EtOH/0.1% BSA in Water
# [2] = Blood, 2 min after iv injection
# [3] = Blood, 30 min after iv injection
# [4] = Bone, 30 min after iv injection
# [5] = Brain, 2 min after iv injection
# [6] = Brain, 30 min after iv injection
# [7] = Heart, 2 min after iv injection
# [8] = Heart, 30 min after iv injection
# [9] = Kidney, 2 min after iv injection
# [10] = Kidney, 30 min after iv injection
# [11] = Kidney, 1 hr after iv injection
# [12] = Kidney, 2 hr after iv injection
# [13] = Liver, 2 min after iv injection
# [14] = Liver, 30 min after iv injection
# [15] = Lung, 30 min after iv injection
# [16] = Muscle, 2 min after iv injection
# [17] = Muscle, 30 min after iv injection
# [18] = Muscle, 1 hr after iv injection
# [19] = Muscle, 2 hr after iv injection
# [20] = Skin, 30 min after iv injection
# [21] = Spleen, 2 min after iv injection
# [22] = Spleen, 30 min after iv injection
# [23] = Spleen, 1 hr after iv injection
# [24] = Spleen, 2 hr after iv injection
# T1 sequence (P05067 672-713 limits assumed): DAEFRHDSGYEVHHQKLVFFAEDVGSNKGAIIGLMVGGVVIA
# T1 sequence (P05067 672-711 limits assumed): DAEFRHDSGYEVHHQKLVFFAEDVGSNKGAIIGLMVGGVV
structure (smiles),measurement,setting,value
"Nc1ccc(-c2ccc3cc(OCCOCCOCCF)ccc3c2)cc1 [Compound 11a, 4-(6-(2-(2-(2-fluoroethoxy)ethoxy)ethoxy)naphthalen-2-yl)benzenamine]",Ki,amyloid plaques,12.5 ± 1.2 nM
"Nc1ccc(-c2ccc3cc(OCCOCCOCCO)ccc3c2)cc1 [Compound 11b, 2-(2-(2-(6-(4-aminophenyl)naphthalen-2-yloxy)ethoxy)ethoxy)ethanol]",Ki,amyloid plaques,22 nM
"CN(C)c1ccc(-c2ccc3cc(OCCOCCOCCF)ccc3c2)cc1 [Compound 12a, 4-(6-(2-(2-(2-fluoroethoxy)ethoxy)ethoxy)naphthalen-2-yl)-N,N-dimethylbenzenamine]",Ki,amyloid plaques,3.1 nM
"CNc1ccc(-c2ccc3cc(OCCOCCOCCO)ccc3c2)cc1 [Compound 13b, 2-(2-(2-(6-(4-(methylamino)phenyl)naphthalen-2-yloxy)ethoxy)ethoxy)ethanol]",Ki,amyloid plaques,1 nM
"Nc1ccc2cc(-c3ccc(O)cc3)ccc2c1 [Compound 16, 4-(6-aminonaphthalen-2-yl)phenol]",Ki,amyloid plaques,33.5 ± 11 nM
"Nc1ccc2cc(-c3ccc(OCCOCCOCCF)cc3)ccc2c1 [Compound 17a, 6-(4-(2-(2-(2-fluoroethoxy)ethoxy)ethoxy)phenyl)naphthalen-2-amine]",Ki,amyloid plaques,20 ± 5 nM
"Nc1ccc2cc(-c3ccc(OCCOCCOCCO)cc3)ccc2c1 [Compound 17b, 2-(2-(2-(4-(6-aminonaphthalen-2-yl)phenoxy)ethoxy)ethoxy)ethanol]",Ki,amyloid plaques,27 nM
"CN(C)c1ccc2cc(-c3ccc(OCCOCCOCCF)cc3)ccc2c1 [Compound 18a, 6-(4-(2-(2-(2-fluoroethoxy)ethoxy)ethoxy)phenyl)-N,N-dimethylnaphthalen-2-amine]",Ki,amyloid plaques,5.6 nM
"CN(C)c1ccc2cc(-c3ccc(OCCOCCOCCO)cc3)ccc2c1 [Compound 18b, 2-(2-(2-(4-(6-(dimethylamino)naphthalen-2-yl)phenoxy)ethoxy)ethoxy)ethanol]",Ki,amyloid plaques,6.5 nM
"CNc1ccc2cc(-c3ccc(OCCOCCOCCF)cc3)ccc2c1 [Compound 19a, 6-(4-(2-(2-(2-fluoroethoxy)ethoxy)ethoxy)phenyl)-N-methylnaphthalen-2-amine]",Ki,amyloid plaques,3 nM
"CNc1ccc2cc(-c3ccc(OCCOCCOCCO)cc3)ccc2c1 [Compound 19b, 2-(2-(2-(4-(6-(methylamino)naphthalen-2-yl)phenoxy)ethoxy)ethoxy)ethanol]",Ki,amyloid plaques,6 nM
"COc1ccc(-c2ccc3cc(N(C)C)ccc3c2)cc1 [Compound 23, 6-(4-methoxyphenyl)-N,N-dimethylnaphthalen-2-amine]",Ki,amyloid plaques,1.4 nM
"CN(C)c1ccc2cc(-c3ccc(O)cc3)ccc2c1 [Compound 24, 4-(6-(dimethylamino)naphthalen-2-yl)phenol]",Ki,amyloid plaques,4.2 nM
"COc1ccc(-c2ccc3cc(O)ccc3c2)cc1 [Compound 25, 6-(4-methoxyphenyl)naphthalen-2-ol]",Ki,amyloid plaques,1.5 nM
"Oc1ccc(-c2ccc3cc(OCCOCCOCCF)ccc3c2)cc1 [Compound 26, 4-(6-(2-(2-(2-fluoroethoxy)ethoxy)ethoxy)naphthalen-2-yl)phenol]",Ki,amyloid plaques,16.5 nM
"Oc1ccc2cc(-c3ccc(OCCOCCOCCF)cc3)ccc2c1 [Compound 28, 6-(4-(2-(2-(2-fluoroethoxy)ethoxy)ethoxy)phenyl)naphthalen-2-ol]",Ki,amyloid plaques,16 nM
"CN(C)c1ccc(-c2ccc3nc(OCCOCCOCCF)ccc3c2)cc1 [Compound 32a, 4-(2-(2-(2-(2-fluoroethoxy)ethoxy)ethoxy)quinolin-6-yl)-N,N-dimethylbenzenamine]",Ki,amyloid plaques,4.4 nM
"CN(C)c1ccc(-c2ccc3nc(OCCOCCOCCO)ccc3c2)cc1 [Compound 32b, 2-(2-(2-(6-(4-(dimethylamino)phenyl)quinolin-2-yloxy)ethoxy)ethoxy)ethanol]",Ki,amyloid plaques,4.7 nM
"Nc1ccc(-c2ccc3nc(OCCOCCOCCF)ccc3c2)cc1 [Compound 33a, 4-(2-(2-(2-(2-fluoroethoxy)ethoxy)ethoxy)quinolin-6-yl)benzenamine]",Ki,amyloid plaques,102 ± 32 nM
"Nc1ccc(-c2ccc3nc(OCCOCCOCCO)ccc3c2)cc1 [Compound 33b, 2-(2-(2-(6-(4-aminophenyl)quinolin-2-yloxy)ethoxy)ethoxy)ethanol]",Ki,amyloid plaques,109 nM
"CNc1ccc(-c2ccc3nc(OCCOCCOCCF)ccc3c2)cc1 [Compound 34a, 4-(2-(2-(2-(2-fluoroethoxy)ethoxy)ethoxy)quinolin-6-yl)-N-methylbenzenamine]",Ki,amyloid plaques,5.5 nM
"CNc1ccc(-c2ccc3nc(OCCOCCOCCO)ccc3c2)cc1 [Compound 34b, 2-(2-(2-(6-(4-(methylamino)phenyl)quinolin-2-yloxy)ethoxy)ethoxy)ethanol]",Ki,amyloid plaques,5 nM
CNc1ccc(-c2ccc3cc(OCCOCCOCCF)ccc3c2)cc1 [[^18F][4-(6-{2-[2-(2-Fluoro-ethoxy)-ethoxy]-ethoxy}-naphthalen-2-yl)-phenyl]-methyl-amine],% dose/g,[1]; [2],2.08 ± 0.20 % dose/g
same,% dose/organ,[1]; [2],3.50 ± 0.18 % dose/organ
same,% dose/g,[1]; [3],1.72 ± 0.29 % dose/g
same,% dose/organ,[1]; [3],2.99 ± 0.48 % dose/organ
same,% dose/g,"[1]; Blood, 1 hr after iv injection",1.41 ± 0.33 % dose/g
same,% dose/organ,"[1]; Blood, 1 hr after iv injection",2.73 ± 0.41 % dose/organ
same,% dose/g,"[1]; Blood, 2 hr after iv injection",2.22 ± 0.37 % dose/g
same,% dose/organ,"[1]; Blood, 2 hr after iv injection",3.59 ± 0.53 % dose/organ
same,% dose/g,"[1]; Bone, 2 min after iv injection",2.14 ± 0.82 % dose/g
same,% dose/organ,"[1]; Bone, 2 min after iv injection",7.38 ± 3.40 % dose/organ
same,% dose/g,[1]; [4],0.97 ± 0.03 % dose/g
same,% dose/organ,[1]; [4],3.36 ± 0.09 % dose/organ
same,% dose/g,"[1]; Bone, 1 hr after iv injection",1.19 ± 0.21 % dose/g
same,% dose/organ,"[1]; Bone, 1 hr after iv injection",4.61 ± 0.36 % dose/organ
same,% dose/g,"[1]; Bone, 2 hr after iv injection",2.18 ± 0.19 % dose/g
same,% dose/organ,"[1]; Bone, 2 hr after iv injection",7.07 ± 0.57 % dose/organ
same,% dose/g,[1]; [5],7.26 ± 1.28 % dose/g
same,% dose/organ,[1]; [5],3.43 ± 0.51 % dose/organ
same,% dose/g,[1]; [6],2.15 ± 0.25 % dose/g
same,% dose/organ,[1]; [6],0.95 ± 0.08 % dose/organ
same,% dose/g,"[1]; Brain, 1 hr after iv injection",1.58 ± 0.18 % dose/g
same,% dose/organ,"[1]; Brain, 1 hr after iv injection",0.75 ± 0.06 % dose/organ
same,% dose/g,"[1]; Brain, 2 hr after iv injection",1.91 ± 0.12 % dose/g
same,% dose/organ,"[1]; Brain, 2 hr after iv injection",0.88 ± 0.06 % dose/organ
same,% dose/g,[1]; [7],5.44 ± 0.25 % dose/g
same,% dose/organ,[1]; [7],0.63 ± 0.08 % dose/organ
same,% dose/g,[1]; [8],2.04 ± 0.30 % dose/g
same,% dose/organ,[1]; [8],0.23 ± 0.02 % dose/organ
same,% dose/g,"[1]; Heart, 1 hr after iv injection",1.46 ± 0.24 % dose/g
same,% dose/organ,"[1]; Heart, 1 hr after iv injection",0.18 ± 0.01 % dose/organ
same,% dose/g,"[1]; Heart, 2 hr after iv injection",1.79 ± 0.19 % dose/g
same,% dose/organ,"[1]; Heart, 2 hr after iv injection",0.19 ± 0.03 % dose/organ
same,% dose/g,[1]; [9],8.88 ± 1.80 % dose/g
same,% dose/organ,[1]; [9],3.27 ± 0.60 % dose/organ
same,% dose/g,[1]; [10],3.98 ± 0.64 % dose/g
same,% dose/organ,[1]; [10],1.45 ± 0.12 % dose/organ
same,% dose/g,[1]; [11],2.75 ± 0.35 % dose/g
same,% dose/organ,[1]; [11],1.05 ± 0.25 % dose/organ
same,% dose/g,[1]; [12],2.52 ± 0.18 % dose/g
same,% dose/organ,[1]; [12],0.88 ± 0.10 % dose/organ
same,% dose/g,[1]; [13],19.7 ± 3.24 % dose/g
same,% dose/organ,[1]; [13],26.5 ± 2.18 % dose/organ
same,% dose/g,[1]; [14],13.4 ± 1.30 % dose/g
same,% dose/organ,[1]; [14],17.1 ± 1.54 % dose/organ
same,% dose/g,"[1]; Liver, 1 hr after iv injection",9.46 ± 1.50 % dose/g
same,% dose/organ,"[1]; Liver, 1 hr after iv injection",16.3 ± 1.39 % dose/organ
same,% dose/g,"[1]; Liver, 2 hr after iv injection",11.9 ± 1.87 % dose/g
same,% dose/organ,"[1]; Liver, 2 hr after iv injection",13.5 ± 1.77 % dose/organ
same,% dose/g,"[1]; Lung, 2 min after iv injection",5.73 ± 0.19 % dose/g
same,% dose/organ,"[1]; Lung, 2 min after iv injection",1.08 ± 0.05 % dose/organ
same,% dose/g,[1]; [15],2.78 ± 0.30 % dose/g
same,% dose/organ,[1]; [15],0.53 ± 0.10 % dose/organ
same,% dose/g,"[1]; Lung, 1 hr after iv injection",1.99 ± 0.26 % dose/g
same,% dose/organ,"[1]; Lung, 1 hr after iv injection",0.41 ± 0.05 % dose/organ
same,% dose/g,"[1]; Lung, 2 hr after iv injection",2.44 ± 0.37 % dose/g
same,% dose/organ,"[1]; Lung, 2 hr after iv injection",0.48 ± 0.16 % dose/organ
same,% dose/g,[1]; [16],1.21 ± 0.98 % dose/g
same,% dose/organ,[1]; [16],11.8 ± 9.69 % dose/organ
same,% dose/g,[1]; [17],1.27 ± 0.06 % dose/g
same,% dose/organ,[1]; [17],12.7 ± 0.64 % dose/organ
same,% dose/g,[1]; [18],0.92 ± 0.09 % dose/g
same,% dose/organ,[1]; [18],10.3 ± 0.54 % dose/organ
same,% dose/g,[1]; [19],0.97 ± 0.06 % dose/g
same,% dose/organ,[1]; [19],9.00 ± 0.56 % dose/organ
same,% dose/g,"[1]; Skin, 2 min after iv injection",1.01 ± 0.16 % dose/g
same,% dose/organ,"[1]; Skin, 2 min after iv injection",3.66 ± 0.74 % dose/organ
same,% dose/g,[1]; [20],1.90 ± 0.08 % dose/g
same,% dose/organ,[1]; [20],7.08 ± 0.26 % dose/organ
same,% dose/g,"[1]; Skin, 1 hr after iv injection",1.56 ± 0.18 % dose/g
same,% dose/organ,"[1]; Skin, 1 hr after iv injection",6.53 ± 0.12 % dose/organ
same,% dose/g,"[1]; Skin, 2 hr after iv injection",1.32 ± 0.09 % dose/g
same,% dose/organ,"[1]; Skin, 2 hr after iv injection",4.60 ± 0.29 % dose/organ
same,% dose/g,[1]; [21],5.11 ± 0.49 % dose/g
same,% dose/organ,[1]; [21],0.47 ± 0.03 % dose/organ
same,% dose/g,[1]; [22],2.12 ± 0.33 % dose/g
same,% dose/organ,[1]; [22],0.23 ± 0.01 % dose/organ
same,% dose/g,[1]; [23],1.81 ± 0.17 % dose/g
same,% dose/organ,[1]; [23],0.23 ± 0.02 % dose/organ
same,% dose/g,[1]; [24],2.08 ± 0.44 % dose/g
same,% dose/organ,[1]; [24],0.19 ± 0.03 % dose/organ
